Measurements taken from patent US10633386B2, “BET protein degraders” (THE REGENTS OF THE UNIVERSITY OF MICHIGAN, priority 2016, dated 2020).

Experiments:
MDA-MB-231 = experiment: Cell growth inhibition (CellTiter-Glo), MDA-MB-231; format: cell-based, human; details: MDA-MB-231 cells, 4 days
Description: (§1) Cell growth inhibitory activity of representative BET bromodomain degraders was determined using CellTiter-Glo® Luminescent Cell Viability Assay. Cells were seeded in 384-well white opaque cell culture plates at a density of 2,000 cells/well with serially diluted compounds and incubated at 37° C. in an atmosphere of 95% air and 5% CO2 for 4 days. Cell viability was determined using the CellTiter-Glo® Luminescent Cell Viability Assay Kit (Promega, Madison, Wis.) according to the manufacture's instruction. Briefly, a volume of CellTiter-Glo® Reagent equal to the volume of cell culture medium was added to each well, and then the plates were incubated at room temperature for 10-20 minutes. The luminescent signal was measured using a Tecan Infinite M1000 multimode microplate reader (Tecan, Morrisville, N.C.). The half maximal inhibitory concentration (IC50) was calculated using the GraphPad Prism 5 software (GraphPad Software, La Jolla, Calif.).

MOLM-13 = experiment: Cell growth inhibition (CellTiter-Glo), MOLM-13; format: cell-based; details: MOLM-13 cells, 4 days
Description: as §1

Row | SMILES | IC50 (MDA-MB-231; Homo sapiens, MDA-MB-231, 96 h) | IC50 (MOLM-13; Homo sapiens, MOLM-13, 96 h) | IC50 (MOLM-13) | IC50 (MDA-MB-231)
1 | CCn1nc(C2CC2)cc1Nc1nc(C(=O)NCCCCNC(=O)COc2cccc3c2C(=O)N(C2CCC(=O)NC2=O)C3=O)nc2[nH]c3cc(-c4c(C)noc4C)c(OC)cc3c12 (stereo not shown) [Cpd. No. 1] | 49.5 nM | 12.2 nM |  | 
2 | CCn1nc(C2CC2)cc1Nc1nc(C(=O)NCCCOCCOCCOCCCNC(=O)COc2cccc3c2C(=O)N(C2CCC(=O)NC2=O)C3=O)nc2[nH]c3cc(-c4c(C)noc4C)c(OC)cc3c12 (stereo not shown) [Cpd. No. 2] | 75.6 nM | 16.3 nM |  | 
3 | CCn1nc(C2CC2)cc1Nc1nc(C(=O)NCCCOCCOCCOCCCNC(=O)CNc2cccc3c2C(=O)N(C2CCC(=O)NC2=O)C3=O)nc2[nH]c3cc(-c4c(C)noc4C)c(OC)cc3c12 (stereo not shown) [Cpd. No. 3] | 94.8 nM | 18.2 nM |  | 
4 | CCn1nc(C2CC2)cc1Nc1nc(C(=O)NCCOCCOCCOCCOc2cccc3c2C(=O)N(C2CCC(=O)NC2=O)C3=O)nc2[nH]c3cc(-c4c(C)noc4C)c(OC)cc3c12 (stereo not shown) [Cpd. No. 5] | 50 nM | 6.9 nM |  | 
5 | CCn1nc(C2CC2)cc1Nc1nc(C(=O)NCCNc2cccc3c2C(=O)N(C2CCC(=O)NC2=O)C3=O)nc2[nH]c3cc(-c4c(C)noc4C)c(OC)cc3c12 (stereo not shown) [Cpd. No. 7] | 453 nM | 65 nM |  | 
6 | CCn1nc(C2CC2)cc1Nc1nc(C(=O)NCCCNc2cccc3c2C(=O)N(C2CCC(=O)NC2=O)C3=O)nc2[nH]c3cc(-c4c(C)noc4C)c(OC)cc3c12 (stereo not shown) [Cpd. No. 8] | 57.6 nM | 6.3 nM |  | 
7 | CCn1nc(C2CC2)cc1Nc1nc(C(=O)NCCOCCNc2cccc3c2C(=O)N(C2CCC(=O)NC2=O)C3=O)nc2[nH]c3cc(-c4c(C)noc4C)c(OC)cc3c12 (stereo not shown) [Cpd. No. 12] | 109 nM | 17.8 nM |  | 
8 | CCn1nc(C2CC2)cc1Nc1nc(C(=O)NCCOCCOCCNc2cccc3c2C(=O)N(C2CCC(=O)NC2=O)C3=O)nc2[nH]c3cc(-c4c(C)noc4C)c(OC)cc3c12 (stereo not shown) [Cpd. No. 13] | 267 nM |  | 8 nM | 
9 | CCn1nc(C2CC2)cc1Nc1nc(C(=O)NCCOCCCc2cccc3c2CN(C2CCC(=O)NC2=O)C3=O)nc2[nH]c3cc(-c4c(C)noc4C)c(OC)cc3c12 (stereo not shown) [Cpd. No. 59] | 24.4 nM | 0.64 nM |  | 
10 | CCn1nc(C2CC2)cc1Nc1nc(C(=O)NCCCCCc2cccc3c2C(=O)N(C2CCC(=O)NC2=O)C3=O)nc2[nH]c3cc(-c4c(C)noc4C)c(OC)cc3c12 (stereo not shown) [Cpd. No. 60] | 11.2 nM | 1.2 nM |  | 
11 | CCn1nc(C2CC2)cc1Nc1nc(C(=O)NCCOCCOCCOCCCc2cccc3c2C(=O)N(C2CCC(=O)NC2=O)C3=O)nc2[nH]c3cc(-c4c(C)noc4C)c(OC)cc3c12 (stereo not shown) [Cpd. No. 61] | 69.6 nM | 1.5 nM |  | 
12 | CCn1nc(C2CC2)cc1Nc1nc(C(=O)NCCOCCCc2cccc3c2C(=O)N(C2CCC(=O)NC2=O)C3=O)nc2[nH]c3cc(-c4c(C)noc4C)c(OC)cc3c12 (stereo not shown) [Cpd. No. 62] | 24.7 nM | 3.4 nM |  | 
13 | CCn1nc(C2CC2)cc1Nc1nc(C(=O)NCCOCCOCCC(=O)Nc2cccc3c2CN(C2CCC(=O)NC2=O)C3=O)nc2[nH]c3cc(-c4c(C)noc4C)c(OC)cc3c12 (stereo not shown) [Cpd. No. 63] | 231 nM | 41.5 nM |  | 
14 | CCn1nc(C2CC2)cc1Nc1nc(C(=O)NCCOCCOCCOCCC(=O)Nc2cccc3c2CN(C2CCC(=O)NC2=O)C3=O)nc2[nH]c3cc(-c4c(C)noc4C)c(OC)cc3c12 (stereo not shown) [Cpd. No. 64] | 98.7 nM | 23.6 nM |  | 
15 | CCn1nc(C2CC2)cc1Nc1nc(C(=O)NCCCCCNc2cccc3c2C(=O)N(C2CCC(=O)NC2=O)C3=O)nc2[nH]c3cc(-c4c(C)noc4C)c(OC)cc3c12 (stereo not shown) [compound 10] | 4.8 nM | 0.9 nM |  | 
16 | CCn1nc(C2CC2)cc1Nc1nc(C(=O)NCCCCCCNc2cccc3c2C(=O)N(C2CCC(=O)NC2=O)C3=O)nc2[nH]c3cc(-c4c(C)noc4C)c(OC)cc3c12 (stereo not shown) [compound 11] | 8 nM | 1.6 nM |  | 
17 | CCn1nc(C2CC2)cc1Nc1nc(C(=O)NCCOCCOCCOCCNc2cccc3c2C(=O)N(C2CCC(=O)NC2=O)C3=O)nc2[nH]c3cc(-c4c(C)noc4C)c(OC)cc3c12 (stereo not shown) [compound 14] | 33 nM | 1.2 nM |  | 
18 | CCn1nc(C2CC2)cc1Nc1nc(C(=O)NCCCOCCCCOCCCNc2cccc3c2C(=O)N(C2CCC(=O)NC2=O)C3=O)nc2[nH]c3cc(-c4c(C)noc4C)c(OC)cc3c12 (stereo not shown) [compound 15] | 1.7 nM | 0.7 nM |  | 

Row | SMILES | IC50 (MDA-MB-231; Homo sapiens, MDA-MB-231, 96 h) | IC50 (MOLM-13; Homo sapiens, MOLM-13, 96 h) | IC50 (MOLM-13) | IC50 (MDA-MB-231)
19 | CCn1nc(C2CC2)cc1Nc1nc(C(=O)NCCOCCOCCOCCOCCOCCOCCOCCNc2cccc3c2C(=O)N(C2CCC(=O)NC2=O)C3=O)nc2[nH]c3cc(-c4c(C)noc4C)c(OC)cc3c12 (stereo not shown) [compound 16] | 128 nM | 10.2 nM |  | 
20 | CCn1nc(C2CC2)cc1Nc1nc(CNCCCCNc2cccc3c2C(=O)N(C2CCC(=O)NC2=O)C3=O)nc2[nH]c3cc(-c4c(C)noc4C)c(OC)cc3c12 (stereo not shown) [compound 17] | 330 nM | 115 nM |  | 
21 | CCn1nc(C2CC2)cc1Nc1nc(COCCCCNc2cccc3c2C(=O)N(C2CCC(=O)NC2=O)C3=O)nc2[nH]c3cc(-c4c(C)noc4C)c(OC)cc3c12 (stereo not shown) [compound 18] | 5.4 nM | 2.9 nM |  | 
22 | CCn1nc(C2CC2)cc1Nc1nc(CNCCCCNc2cccc3c2CN(C2CCC(=O)NC2=O)C3=O)nc2[nH]c3cc(-c4c(C)noc4C)c(OC)cc3c12 (stereo not shown) [compound 19] | 1420 nM | 379 nM |  | 
23 | CCn1nc(C2CC2)cc1Nc1nc(CNCCCOCCOCCOCCCNc2cccc3c2C(=O)N(C2CCC(=O)NC2=O)C3=O)nc2[nH]c3cc(-c4c(C)noc4C)c(OC)cc3c12 (stereo not shown) [compound 20] | 3.2 nM | 0.9 nM |  | 
24 | CCn1nc(C2CC2)cc1Nc1nc(CNCCCOCCCCOCCCNc2cccc3c2C(=O)N(C2CCC(=O)NC2=O)C3=O)nc2[nH]c3cc(-c4c(C)noc4C)c(OC)cc3c12 (stereo not shown) [compound 21] | 543 nM | 84.6 nM |  | 
25 | CCn1nc(C2CC2)cc1Nc1nc(C(=O)NCCOCCNc2cccc3c2CN(C2CCC(=O)NC2=O)C3=O)nc2[nH]c3cc(-c4c(C)noc4C)c(OC)cc3c12 (stereo not shown) [compound 22] | 63.8 nM | 12.4 nM |  | 
26 | CCn1nc(C2CC2)cc1Nc1nc(C(=O)NCCOCCOCCNc2cccc3c2CN(C2CCC(=O)NC2=O)C3=O)nc2[nH]c3cc(-c4c(C)noc4C)c(OC)cc3c12 (stereo not shown) [compound 23] | 83.4 nM | 16.7 nM |  | 
27 | CCn1nc(C2CC2)cc1Nc1nc(C(=O)NCCOCCOCCOCCNc2cccc3c2CN(C2CCC(=O)NC2=O)C3=O)nc2[nH]c3cc(-c4c(C)noc4C)c(OC)cc3c12 (stereo not shown) [compound 24] | 74.9 nM | 12.1 nM |  | 
28 | CCn1nc(C2CC2)cc1Nc1nc(C(=O)NCCOCCOCCOCCOCCNc2cccc3c2CN(C2CCC(=O)NC2=O)C3=O)nc2[nH]c3cc(-c4c(C)noc4C)c(OC)cc3c12 (stereo not shown) [compound 25] | 25.1 nM | 3.5 nM |  | 
29 | CCn1nc(C2CC2)cc1Nc1nc(C(=O)NCCOCCOCCNc2cccc3c2C(=O)N(C2CCC(=O)NC2=O)C3=O)nc2[nH]c3cc(-c4c(C)noc4C)c(OC)cc3c12 (stereo not shown) [compound 65] |  |  | 47.1 nM | 438 nM
30 | CCn1nc(C2CC2)cc1Nc1nc(C(=O)NCCCCNc2cccc3c2CN(C2CCC(=O)NC2=O)C3=O)nc2[nH]c3cc(-c4c(C)noc4C)c(OC)cc3c12 (stereo not shown) [compound 66] | 275 nM | 47.3 nM |  | 
31 | CCn1nc(C2CC2)cc1Nc1nc(C(=O)NCCCOCCOCCOCCCNc2cccc3c2CN(C2CCC(=O)NC2=O)C3=O)nc2[nH]c3cc(-c4c(C)noc4C)c(OC)cc3c12 (stereo not shown) [compound 67] | 2 nM | 0.7 nM |  | 
32 | CCn1nc(C2CC2)cc1Nc1nc(C(=O)NCCCOCCOCCOCCNc2cccc3c2CN(C2CCC(=O)NC2=O)C3=O)nc2[nH]c3cc(-c4c(C)noc4C)c(OC)cc3c12 (stereo not shown) [compound 68] | 4.1 nM | 1.2 nM |  | 
33 | CCn1nc(C2CC2)cc1Nc1nc(C(=O)NCCCOCCOCCNc2cccc3c2CN(C2CCC(=O)NC2=O)C3=O)nc2[nH]c3cc(-c4c(C)noc4C)c(OC)cc3c12 (stereo not shown) [compound 69] | 16.1 nM | 2.9 nM |  | 
34 | CCn1nc(C2CC2)cc1Nc1nc(C(=O)NCCOCCOCCOCCOCCCc2cccc3c2CN(C2CCC(=O)NC2=O)C3=O)nc2[nH]c3cc(-c4c(C)noc4C)c(OC)cc3c12 (stereo not shown) [compound 70] | 41 nM | 8.5 nM |  | 
35 | CCn1nc(C2CC2)cc1Nc1nc(C(=O)NCCCOCCOCCOCC#Cc2cccc3c2CN(C2CCC(=O)NC2=O)C3=O)nc2[nH]c3cc(-c4c(C)noc4C)c(OC)cc3c12 (stereo not shown) [compound 72] | 4.2 nM | 1.2 nM |  | 
